# From patent US6399570B1, “Antimicrobial/endotoxin neutralizing polypeptide” (priority 1999, dated 2002)
# How the values were obtained:
# [1] = system: E. coli 0111; experiment: Time course of E. coli growth in the presence of LF polypeptides; format: cell-based; settings: 50 μM, seven hour time course, OD 600 nm
# Procedure: To investigate whether regions of the molecule involved in GAG binding activity of the 6 kDa LF polypeptide (generated from pepsin digestion) are also involved in the antimicrobial activity of the 6 kDa polypeptide of the present invention, polypeptides of various lengths corresponding to the N-terminal amino acid sequence of LF were tested for the ability to inhibit the growth of E. coli 0111. Overnight cultures were grown over a seven hour time course in the presence of 50 μM of either LF, a 33-mer corresponding to amino acids 1-33 of LF, a 26-mer corresponding to […] of LF, a 27-mer corresponding to amino acids 1-27 of LF. […] This is consistent with LF and the 33-mer inhibiting bacterial growth via different mechanisms. […] The failure of the 26-mer and the 27-mer to inhibit culture growth emphasizes the importance of retaining both clusters of basic residues, at the termini of the 33-mer, for the antimicrobial functionality of polypeptides derived from the N-terminal LF sequence.
# Time course of E. coli growth in the presence of LF polypeptides. E. coli cells, clinical isolate strain 0111, were obtained from ATCC. […] Culture growth was monitored spectrophotometrically by measuring optical density at 600 nm at each indicated time point.
# [2] = system: P. aer. LPS; experiment: Limulus ELISA, ENC50 against P. aer. LPS; format: biochemical, Pseudomonas aeruginosa; settings: endotoxin 200 EU/ml; mean +/− SD
# Procedure: (§1) The peptide-mediated inhibition of endotoxin-induced Limulus amebocyte lysate (LAL) coagulation was measured with a sensitive LAL assay (Zhang et al., J. Clin. Microbiol. 32: 416-422 (1994)). Limulus ELISA is an endotoxin assay based on activation of the LAL coagulation by endotoxin and detection of the generated peptide-C immunoreactivity with an ELISA using a monoclonal antibody to the polypeptide. Endotoxin was defined to be neutralized when it lost its ability to activate the LAL enzymes. The 50% endotoxin-neutralizing concentration (ENC50) reflects the potency of an anti-endotoxin agent; a low ENC50 indicates high potency. Table 2 lists the determined ENC50 value of each anti-endotoxin agent against lipid A and four different types of LPS. The potency of each anti-endotoxin agent varied depending on the type of endotoxin. […] The only difference between the sequence of LF-33 and LF-27 is that LF-27 lacks the first six residues (GRRRRS) at the N-terminus of LF-33. Remarkably, this deletion led to dramatic loss of the endotoxin-neutralizing capacity of the polypeptide in this assay. Binding of serum proteins to endotoxin neutralizes the endotoxin activity in this assay by preventing endotoxin from activating LAL (Emancipator et al., Infect. Immun. 60: 596-601 (1992)).
# (§2) LPS. […] LPS (purity >99%) from Neisseria meningitidis was prepared from the group B strain #6275 and its potency was 25 EU/ng. […] The potency of the above endotoxin was determined with the Limulus enzyme-linked immunosorbent assay (ELISA, 43) in comparison with US Pharmacopeia reference standard endotoxin EC-5.
# (§3) Briefly, 25 μl endotoxin solution (200 EU/ml) was mixed with an equal volume of test materials in a series of two-fold dilution in 0.15 M NaCl in a sterile 96-well tissue culture plate (Nunc A/S, Roskilde, Denmark), and incubated at 37° C. for 1 h in a dry-air incubator. […] The endotoxin activity was then quantified with the use of Limulus ELISA (Zhang et al., J. Clin. Microbiol. 32: 416-422 (1994)). […] The high sensitivity of the assay allowed for very low levels of the endotoxin activity to be detected. […]
# [3] = system: N. min. LPS; experiment: Limulus ELISA, ENC50 against N. min. LPS; format: biochemical, Neisseria meningitidis; settings: endotoxin 200 EU/ml; mean +/− SD
# Procedure: as §1, §2, §3
smiles,measurement,setting,value
CSCC[C@H](NC(=O)[C@H](CC(N)=O)NC(=O)[C@H](CCCNC(=N)N)NC(=O)[C@H](CCC(N)=O)NC(=O)[C@H](Cc1c[nH]c2ccccc12)NC(=O)[C@H](CCC(N)=O)NC(=O)[C@H](Cc1ccccc1)NC(=O)[C@H](CS)NC(=O)[C@H](CCCCN)NC(=O)[C@@H](NC(=O)[C@H](C)NC(=O)[C@H](CCC(=O)O)NC(=O)[C@@H]1CCCN1C(=O)[C@H](CCC(N)=O)NC(=O)[C@H](CO)NC(=O)[C@@H](NC(=O)[C@H](C)NC(=O)[C@H](CS)NC(=O)[C@H](Cc1c[nH]c2ccccc12)NC(=O)[C@H](CCC(N)=O)NC(=O)[C@@H](N)C(C)C)C(C)C)[C@@H](C)O)C(=O)N[C@@H](CCCNC(=N)N)C(=O)N[C@@H](CCCCN)C(=O)N[C@H](C(=O)N[C@@H](CCCNC(=N)N)C(=O)NCC(=O)N1CCC[C@H]1C(=O)O)C(C)C [LF-27],growth of E. coli 0111 cultures,[1],failure
same,ENC50 against P. aer. LPS,[2],no detectable activity
same,IC50,[2],> 300 µM
same,ENC50 against N. min. LPS,[3],no detectable activity
same,IC50,[3],> 300 µM
